The values below come from patent publication US20090191216A1, “Antibody or a fragment thereof, having neutralizing activity against HIV” (priority 2005, published 2009).

Bridges are numbered along the chain shown (N, C = ends). Where no end group is shown, it is not given here.

For the assay, the system named is HIV-1 R5 strains from clades C and D. In words: Inhibition of HIV-1 transcytosis across HEC-1 cell line with cyclized CDR3. The assay is classed as cell-based. To be noted: cells preincubated 30 minutes at 17° C. with peptide; linear CDR3 as control.

Consider “cyclized CDR3 derived from Fab clone 43: CDR3 of clone 43 H chain (SEQ ID NO:1) with flanking residues, cyclized by disulfide bridge, SEQ ID NO:12 (CARDPRYYDAWSGPQLYYYYMDVWCKG; disulfide 1-25; listed as Homo Sapiens)”, for which the inhibition of transcytosis result is listed as “more than 50%”.
